Test results: patent publication US20130287688A1, “NOVEL COMPOSITIONS AND USES OF ANTI-HYPERTENSION AGENTS FOR CANCER THERAPY” (XTUIT PHARMACEUTICALS, INC., priority 2010, published 2013)

Columns and labels:
[1] = test system: E0771 breast tumors; test: Breast tumor growth and survival studies; assay type: in vivo, mice
Protocol: (§1) Breast tumor growth and survival studies: Mice bearing orthotopic E0771 or 4T1 breast tumors were split into treatment groups, time-matched for time after implantation and size-matched for tumor volume at this time (110-111 mm^3 in E0771, in 4T1). […] The primary tumors were then measured every 2 days, beginning on day 0, using calipers. Tumor growth was quantified using the time for each to reach double its initial volume Animal survival was quantified based on time of death after initiation of treatment or time to reach excessive tumor burden (>1000 mm^3).

[2] = test system: 4T1 breast tumors; test: Breast tumor growth and survival studies; assay type: in vivo, mice
Excerpt: In FIG. 35B, the quantification of tumor growth rates, based on the time to reach double the initial volume, is shown.
In FIG. 35C, the animal survival following the initiation of treatment is shown. […] Statistical tests were corrected for multiple comparisons using the Holm-Bonferroni method.
as §1

[3] = test system: tumors; test: Solid stress after a panel of ARBs; assay type: in vivo; settings: 40 mg/kg losartan, 3.2 mg/kg candesartan, 32 mg/kg valsartan
Protocol: Solid stress levels in tumors after angiotensin inhibition using the ARBs losartan, candesartan, and valsartan are shown. Doses were chosen based on their relative doses in patients for hypertension indications (40 mg/kg losartan, 3.2 mg/kg candesartan, 32 mg/kg valsartan). […] Animal numbers n=6-7. Statistical tests were corrected for multiple comparisons using the Holm-Bonferroni method.
The mechanism responsible for the increase in tumor vessel perfusion by losartan was investigated. Desmoplasia, high stromal cell and matrix density, is a major contributor to the solid stress accumulation that compresses vessels (Stylianopoulos T, et al., Growth-induced mechanical stress in murine and human tumors: causes, consequences and remedies. under review. 2012). Since angiotensin inhibitors reduce matrix production in tumors (Diop-Frimpong B, et al., Proc Natl Acad Sci USA. 2011; 108(7): 2909-14), it was hypothesized that they decompress vessels and increase perfusion by decreasing solid stress. Collagen levels were used as a metric of matrix production as described in Diop-Frimpong et al., Proc Nall Acad Sci USA. […] Moreover, losartan decreased collagen I concentration, measured based on staining intensity, in E0771 and AK4.4 tumors (FIGS. 24B-24C). Of note, dense collagen seemed to colocalize with low-perfusion areas (FIG. 24C). Next, solid stress in these tumors was measured using recently established technique described in Stylianopoulos T, et al., Growth-induced mechanical stress in murine and human tumors: causes, consequences and remedies. under review. 2012. […]
Solid stress: Solid stress was measured using the tumor opening technique as described previously (Stylianopoulos T, et al., Growth-induced mechanical stress in murine and human tumors: causes, consequences and remedies. under review. 2012). […] Subsequently, each tumor was excised, washed with Hanks' Balanced Salt Solution (HBSS) and its three dimensions were measured. […] Afterwards, the opening resulting from the cut was measured at the middle of the cut at the surface of the tumor. […]

[4] = test system: E0771 breast tumors; test: Tumor matrix level histology (collagen I); parameters: species or system SCID mouse; settings: mouse, in vivo
Protocol: Collagen levels were used as a metric of matrix production as described in Diop-Frimpong et al., Proc Nall Acad Sci USA. […] Next, solid stress in these tumors was measured using recently established technique described in Stylianopoulos T, et al., Growth-induced mechanical stress in murine and human tumors: causes, consequences and remedies. under review.
Vessel perfusion, matrix level, and hypoxia histology: For breast tumors, mice bearing orthotopic E0771 were split into treatment groups, time-matched for time after implantation and size-matched for tumor volume at this time (−100 mm^3). For pancreatic tumors, mice bearing orthotopic AK4.4 were split into treatment groups, size-matched for tumor volume (˜22 mm^3), 6 days after implantation. […] On the day of the last treatment, mice were slowly (−2 min) injected with 100 μL of 1 mg/mL biotinylated lectin (Vector Labs), administered retro-orbitally 5 min prior to tumor removal. For hypoxia studies, the mice were also injected with 60 mg/kg of 10 mg/mL pimonidazole 1 hr prior to tumor removal. […] For matrix staining, collagen I was detected using the LF-67 antibody provided by Dr. Larry Fisher (National Institute of Dental Research, Bethesda, Md.).
Histological image analysis: Eight random images (four interior, four periphery) at 20× magnification were taken from each slide using a confocal microscope (Olympus). […] For perfusion, the number of vessels counted by this program with colocalization of lectin and CD31 staining was divided by the number of vessels counted with CD31 staining. For vessel metrics, including diameter and density, the program determined the average size of all counted vessels and their length, as well as the count per area Images of collagen I stained sections were analyzed based on the area fraction of positive staining and on the average staining intensity (concentration) in each image. […] Images of hypoxia staining with pimonidazole were similarly analyzed for the area fraction of positive staining, counting the fraction of pixels above a threshold based on background intensity.

[5] = test system: E0771 tumors; test: Solid stress (tumor opening technique); parameters: species or system mice; settings: mouse, in vivo
Protocol: Solid stress was assessed using an ex vivo technique involving the measurement of the extent of tumor tissue relaxation (tumor opening relative to tumor diameter) following a stress-releasing incision, with larger openings indicating higher stress.
When the tumors reached a size of −1 cm in diameter, the mice were anesthetized. Subsequently, each tumor was excised, washed with Hanks' Balanced Salt Solution (HBSS) and its three dimensions were measured. Each tumor was cut along its longest axis, to a depth of 80% of its shortest dimension, using a scalpel. The tumors were allowed to relax for 10 minutes in HBSS to diminish any transient, poro-elastic responses. Afterwards, the opening resulting from the cut was measured at the middle of the cut at the surface of the tumor. Solid stress is proportional to the size of the opening relative to the size of the dimension perpendicular to the cut.

[6] = agent given alone (losartan 40 mg/kg daily or doxorubicin 2 mg/kg every three days)

COc1cccc2c1C(=O)c1c(O)c3c(c(O)c1C2=O)C[C@@](O)(C(=O)CO)C[C@@H]3O[C@H]1C[C@H](N)[C@H](O)[C@H](C)O1 [doxorubicin]
tumor growth rate [1, 6]: no significant effect
median survival ([1]; doxorubicin alone): 16 days
tumor growth rate [2, 6]: no significant effect
survival ([2]; monotherapy): improves survival

CCOc1nc2cccc(C(=O)O)c2n1Cc1ccc(-c2ccccc2-c2nnn[nH]2)cc1 [candesartan]
solid stress [3]: reduce solid stress to a similar degree

CCCCC(=O)N(Cc1ccc(-c2ccccc2-c2nnn[nH]2)cc1)[C@H](C(=O)O)C(C)C [valsartan]
solid stress [3]: reduce solid stress to a similar degree

NCCCC[C@H](N[C@@H](CCc1ccccc1)C(=O)O)C(=O)N1CCC[C@H]1C(=O)O [lisinopril]
matrix production, collagen I area fraction [4]: decreases
solid stress [5]: reduces solid stress
